Results as given in publication PMC5385157 (Neuropharmacology, 2016).
“And” between values parts separate entries of the source, which are not always exact repeats. Equal entries are not always repeated. Where two headings read alike, the source gives them in different places.

What was measured:
HA-α2AAR [1] = target: T1, HA-α2AAR (Mus musculus, UniProt Q01338); details: 1 µM
T1 sequence (Q01338 1-465): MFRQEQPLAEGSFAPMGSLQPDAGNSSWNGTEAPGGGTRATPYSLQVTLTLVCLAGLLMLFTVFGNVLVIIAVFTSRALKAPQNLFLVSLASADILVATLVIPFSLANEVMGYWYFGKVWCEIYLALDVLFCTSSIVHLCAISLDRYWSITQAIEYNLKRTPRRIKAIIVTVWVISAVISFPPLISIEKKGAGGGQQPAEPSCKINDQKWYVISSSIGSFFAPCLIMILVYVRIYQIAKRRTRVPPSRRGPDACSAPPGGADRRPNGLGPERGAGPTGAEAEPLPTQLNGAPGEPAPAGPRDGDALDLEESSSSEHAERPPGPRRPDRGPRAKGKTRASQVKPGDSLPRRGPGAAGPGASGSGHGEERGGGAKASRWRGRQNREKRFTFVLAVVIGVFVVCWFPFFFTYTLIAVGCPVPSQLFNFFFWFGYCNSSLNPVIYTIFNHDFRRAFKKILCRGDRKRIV

α2AAR/Arr3 interaction = α2AAR/Arr3 interaction (Mus musculus, UniProt Q01338); details: 1 µM, live HEK 293 cells
[2] = clinical blood plasma level; ref Baldessarini and Tarazi (2006); cited from earlier work
human α2AAR = details: ref NIMH Psychoactive Drug Screening Program (PDSP) Ki Database, cited from earlier work
HA-α2AAR [3] = target: T1, HA-α2AAR; details: 1 µM, 30 min
[4] = system: α2AAR-mediated activation of the ERK1/2 MAP kinase pathway; experiment: Western blot for phospho-ERK1/2 in WT MEF cells; assay type: cell-based, murine; details: 1 µM
α2AAR = target: T2, α2AAR (Mus musculus, UniProt Q01338); experiment: cAMP assay; assay type: cell-based, murine; details: ligand 10 µM, 10 µM forskolin, 20 min
T2 sequence (Q01338 1-465): T1 sequence (Q01338 1-465)

Sequence of α2AAR/Arr3 interaction (P32121 whole entry partner, one chain of several): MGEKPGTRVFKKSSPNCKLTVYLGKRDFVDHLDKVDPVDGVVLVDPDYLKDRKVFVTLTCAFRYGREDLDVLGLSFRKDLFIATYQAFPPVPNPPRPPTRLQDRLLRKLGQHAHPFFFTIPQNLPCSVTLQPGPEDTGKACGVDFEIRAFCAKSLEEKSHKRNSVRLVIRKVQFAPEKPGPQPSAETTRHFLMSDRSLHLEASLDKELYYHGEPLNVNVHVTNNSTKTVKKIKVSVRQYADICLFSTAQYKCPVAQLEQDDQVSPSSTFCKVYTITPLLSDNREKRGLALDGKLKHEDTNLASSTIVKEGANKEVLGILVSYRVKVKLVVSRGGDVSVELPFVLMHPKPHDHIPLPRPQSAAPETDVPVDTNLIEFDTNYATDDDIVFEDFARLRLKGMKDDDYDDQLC

CN(C)CCCN1c2ccccc2Sc2ccc(Cl)cc21 [Chlorpromazine, chlorpromazine]
receptor loss from the cell surface (HA-α2AAR [1]; WT MEF cells): ~30% | α2AAR endocytic response in arrestin-null (Arr2,3−/−) MEF cells (HA-α2AAR [1]; 5, 10, 30 min): lost | α2AAR/Arr3 interaction (FLIM-FRET efficiency) (α2AAR/Arr3 interaction): robust α2AAR/Arr3 interaction | Therapeutic range [2]: 90 to 2350 nM | Ki (human α2AAR; read-out: Reported values at human α2AAR, Avg.): 251 nM | Ki (human α2AAR; read-out: Reported values at human α2AAR, Range): 78 to 558 nM | α2AAR endocytosis (intracellular punctae) (HA-α2AAR [3]): robust α2AAR endocytosis

CN1CCN(C2=Nc3cc(Cl)ccc3Nc3ccccc32)CC1 [Clozapine, clozapine]
ERK1/2 activation (pERK1/2) [4]: unable to detect any ERK1/2 activation

OCCN1CCN(CCCN2c3ccccc3Sc3ccc(C(F)(F)F)cc32)CC1 [Fluphenazine, fluphenazine]
Therapeutic range [2]: 20–100 ng/ml and 50–230 nM

NC[C@H](O)c1ccc(O)c(O)c1 [NE, norepinephrine]
Gαi-mediated inhibition of cAMP production (α2AAR): ~50%
